{"source": "patent US11730703B2", "about": "“Nanoparticles for treatment of posterior segment ocular diseases and conditions” (UNIVERSITY OF SOUTH FLORIDA, priority 2017, dated 2023)", "key": {"[1]": {"assay": "In vitro drug release (dialysis membrane tubing, PBS)", "format": "physicochemical", "conditions": "FIG. 5", "procedure": "(iii) In vitro Drug Release: The rate of TA release from the NPs was measured by adapting a previously reported method. 40 Dialysis membrane tubing, MWCO 10 000 Da. (Spectrum Laboratories, Rancho Dominguez, Calif.) was soaked in deionized H2O overnight. 1 ml of the NP suspension was added to the dialysis membrane tubing after being briefly sonicated and was placed into 100 ml of PBS covered and stirring at 100 rpm at 37° C. 1 mL samples were removed at predetermined intervals over 10 days and replaced with fresh PBS. Samples were analyzed using UV spectroscopy at a wavelength of 240 nm (lmax) and compared to standard dilutions of TA in PBS (r^2=0.989) to determine the percentage of drug released over 10 days.\n500 μL of 1 mg/mL DIG sol and 500 μL of DIG NPs in (cellulose) dialysis membrane tubing\nSamples were taken in 750 μL increments and the respective amount of PBS was re-added"}, "[2]": {"tested_on": "ARPE-19 cells", "assay": "Cytotoxicity, MTT assay", "format": "cell-based, human", "conditions": "FIG. 6", "procedure": "(iv) Cytotoxicity: The cytotoxicity of the TA Nanoparticles was assessed in ARPE-19 cells (cells of a human retinal pigment epithelial cell line) by the 3-(4,5-dimethylthiazol-2-yl)-2,5-diphenyltetrazolium bromide salt (MTT) assay. Briefly, cells were seeded in 24-well plates at a density of 5×10^4 cells/ml for 24 h to achieve confluency before treatment. […] Cell culture media were aspirated, and […] of MTT reagent solution (1 mg/ml) was added to each well. Cells were incubated at 37° C. and 5% CO2 for 4 h, after which the MTT reagent solution was aspirated and 1 mL of DMSO was added to each well. Plates were allowed to shake gently for 10 min before being read by Synergy H4 plate reader (Biotek Industries, Inc., Winooski, Vt.) at absorbance of 570 nm.\nMedia was removed and cells were washed with 500 μL of HBSS prior to treatment.\nCell Treatments • 3 control wells with 500 μL Experimental Media only • 3 wells with DIG sol at 0.5 μM and 1 μM concentrations: (0.5 μM: 9.76 μL DIG sol+490.24 μL Exp. Media) • (1 μM: 19.52 μL DIG sol+480.48 μL Exp. Media) • 3 wells with DIG NPs at 0.5 μM and 1 μM concentrations: (0.5 μM: 1.012 μL DIG NPs+[…] Exp. Media) • (1 μM: 2.024 μL DIG NPs+497.97 μL Exp. Media)\nMTT Cell treatments: same as above w/o CoCl2 step\nPrepare MTT reagent: 0.5 mg/mL (in basal media) and cover with aluminum foil\nRemove media from each well and wash with HBSS […]"}}, "data": [{"smiles": "C[C@H]1O[C@@H](O[C@H]2[C@@H](O)C[C@H](O[C@H]3[C@@H](O)C[C@H](O[C@H]4CC[C@@]5(C)[C@H](CC[C@@H]6[C@@H]5C[C@@H](O)[C@]5(C)[C@@H](C7=CC(=O)OC7)CC[C@]65O)C4)O[C@@H]3C)O[C@@H]2C)C[C@H](O)[C@@H]1O", "note": "[digoxin]", "values": [{"measurement": "Drug release (in words)", "setting": "[1]", "value": "sustained therapeutic release"}, {"measurement": "Cell toxicity (in words)", "setting": "[2]", "value": "relatively low cell toxicity"}]}]}
